# Laboratory results taken from patent US11370774B2, “Substituted benzofuran, benzopyrrole, benzothiophene, and structurally related complement inhibitors” (BioCryst Pharmaceuticals, Inc., priority 2018, dated 2022).
# Target: Factor D (Homo sapiens (Human), UniProt P00746)
# Test: Factor D esterolytic assay (Z-Lys-SBzl substrate, DTNB, 405 nm)
# Type: biochemical
# Settings: Z-Lys-SBzl 1.29 mM, pH 7.5, 10% DMSO, tested a minimum of three times, read-out: Measured Ki (IC50) Value for Compounds: IC50
# Method in brief: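 Human Factor D ([…]) with 1.29 mM Z-Lys-SBzl in 100 mM HEPES, 500 mM NaCl, pH 7.5, 10% DMSO; substrate added immediately or after room-temperature preincubation. Released thiol reacted with DTNB, rate followed at 405 nm for 600 sec, 690 nm background subtracted. IC50 from percent inhibition versus uninhibited rate, n≥3.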
# Sequence of Factor D (P00746 26-253): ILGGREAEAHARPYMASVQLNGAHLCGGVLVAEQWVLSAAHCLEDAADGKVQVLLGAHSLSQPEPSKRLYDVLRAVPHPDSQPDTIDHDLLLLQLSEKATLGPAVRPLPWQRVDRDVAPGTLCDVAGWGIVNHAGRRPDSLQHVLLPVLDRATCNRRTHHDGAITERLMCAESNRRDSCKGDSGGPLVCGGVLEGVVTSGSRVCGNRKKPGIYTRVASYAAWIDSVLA
row,IC50 [nM],Structure (SMILES)
1,< 1000,"N#Cc1ccc(CC(=O)O)c(OCc2cc(-c3ccnc(CN)c3F)c3occc3c2)c1 [Compound 435b, 2-(2-((7-(2-(aminomethyl)-3-fluoropyridin-4-yl)benzofuran-5-yl)methoxy)-4-cyanophenyl)acetic acid]"
2,< 1000,"CC(=O)Nc1ccc(CC(=O)O)c(OCc2cc(-c3ccnc(CN)c3)c3occc3c2)c1 [Compound 437c, 2-(4-acetamido-2-((7-(2-(aminomethyl)pyridin-4-yl)benzofuran-5-yl)methoxy)phenyl)acetic acid]"
3,< 1000,"CC(=O)Nc1ccc(CC(=O)O)c(OCc2cc(-c3ccnc(CN)c3F)c3occc3c2)c1 [Compound 438c, 2-(4-acetamido-2-((7-(2-(aminomethyl)-3-fluoropyridin-4-yl)benzofuran-5-yl)methoxy)phenyl)acetic acid]"
4,< 1000,"COCc1cc2cc(COc3cc(C(N)=O)ccc3CC(=O)O)cc(-c3cccc(CN)c3F)c2o1 [Compound 439c, 2-(2-((7-(3-(aminomethyl)-2-fluorophenyl)-2-(methoxymethyl)benzofuran-5-yl)methoxy)-4-carbamoylphenyl)acetic acid]"
5,< 1000,"COCc1cc2cc(COc3cc(CN)ccc3CC(=O)O)cc(-c3cccc(CN)c3F)c2o1 [Compound 440c, 2-(4-(aminomethyl)-2-((7-(3-(aminomethyl)-2-fluorophenyl)-2-(methoxymethyl)benzofuran-5-yl)methoxy)phenyl)acetic acid]"
6,< 1000,"COCc1cc2cc(COc3cc(NC(C)=O)ccc3CC(=O)O)cc(-c3cccc(CN)c3F)c2o1 [Compound 441c, 2-(4-acetamido-2-((7-(3-(aminomethyl)-2-fluorophenyl)-2-(methoxymethyl)benzofuran-5-yl)methoxy)phenyl)acetic acid]"
7,< 1000,"Cc1ccc(CC(=O)O)c(OCc2cc(-c3cccc(CN)c3)c3sccc3c2)c1 [Compound 443i, 2-(2-((7-(3-(aminomethyl)phenyl)benzo[b]thiophen-5-yl)methoxy)-4-methylphenyl)acetic acid]"
8,< 1000,"COCc1cc2cc(COc3cc(C)ccc3CC(=O)O)cc(-c3cccc(CN)c3F)c2o1 [Compound 444c, 2-(2-((7-(3-(aminomethyl)-2-fluorophenyl)-2-(methoxymethyl)benzofuran-5-yl)methoxy)-4-methylphenyl)acetic acid]"
9,< 1000,"COCc1cc2cc(COc3cc(CN)ccc3CC(=O)O)cc(-c3cccc(CN)c3)c2o1 [Compound 445c, 2-(4-(aminomethyl)-2-((7-(3-(aminomethyl)phenyl)-2-(methoxymethyl)benzofuran-5-yl)methoxy)phenyl)acetic acid]"
10,< 1000,"NCc1cccc(-c2cc(COc3cc(CN)ccc3CC(=O)O)cc3cc(CO)oc23)c1 [Compound 446c, 2-(4-(aminomethyl)-2-((7-(3-(aminomethyl)phenyl)-2-(hydroxymethyl)benzofuran-5-yl)methoxy)phenyl)acetic acid]"
11,< 1000,"COc1ccc(CC(=O)O)c(OCc2cc(-c3ccnc(CN)c3)c3ccn(C(C)C)c3c2)c1 [Compound 447d, 2-(2-((4-(2-(aminomethyl)pyridin-4-yl)-1-isopropyl-1H-indol-6-yl)methoxy)-4-methoxyphenyl)acetic acid]"
12,< 1000,"COc1ccc(CC(=O)O)c(OCc2cc(-c3ccnc(CN)c3F)c3ccn(C(C)C)c3c2)c1 [Compound 448c, 2-(2-((4-(2-(aminomethyl)-3-fluoropyridin-4-yl)-1-isopropyl-1H-indol-6-yl)methoxy)-4-methoxyphenyl)acetic acid]"
13,< 1000,"CC(C)n1ccc2c(-c3cccc(CN)c3)cc(COc3cc(F)ccc3CC(=O)O)cc21 [Compound 449c, 2-(2-((4-(3-(aminomethyl)phenyl)-1-isopropyl-1H-indol-6-yl)methoxy)-4-fluorophenyl)acetic acid]"
14,< 1000,"CC(C)n1ccc2c(-c3cccc(CN)c3F)cc(COc3cc(F)ccc3CC(=O)O)cc21 [Compound 450b, 2-(2-((4-(3-(aminomethyl)-2-fluorophenyl)-1-isopropyl-1H-indol-6-yl)methoxy)-4-fluorophenyl)acetic acid]"
15,< 1000,"NCc1ccc(CC(=O)O)c(OCc2cc(-c3ccnc(CN)c3)c3occc3c2)c1 [Compound 451c, 2-(4-(aminomethyl)-2-((7-(2-(aminomethyl)pyridin-4-yl)benzofuran-5-yl)methoxy)phenyl)acetic acid]"
16,< 1000,"COCc1cc2cc(COc3cc(C)ccc3CC(=O)O)cc(-c3ccnc(CN)c3F)c2o1 [Compound 453d, 2-(2-((7-(2-(aminomethyl)-3-fluoropyridin-4-yl)-2-(methoxymethyl)benzofuran-5-yl)methoxy)-4-methylphenyl)acetic acid]"
17,< 1000,"COCc1cc2cc(COc3cc(C)ccc3CC(=O)O)cc(-c3ccnc(CN)c3)c2o1 [Compound 454d, 2-(2-((7-(2-(aminomethyl)pyridin-4-yl)-2-(methoxymethyl)benzofuran-5-yl)methoxy)-4-methylphenyl)acetic acid]"

row,IC50 [nM],Structure (SMILES)
1,< 1000,"NCc1ccc(CC(=O)O)c(OCc2cc(-c3cccc(CN)c3F)c3occc3c2)c1 [Compound 456c, 2-(4-(aminomethyl)-2-((7-(3-(aminomethyl)-2-fluorophenyl)benzofuran-5-yl)methoxy)phenyl)acetic acid]"
2,< 1000,"NCc1cccc(-c2cc(COc3ccccc3CC(=O)O)cc3cc(COc4ccccc4)oc23)c1 [Compound 457c, 2-(2-((7-(3-(aminomethyl)phenyl)-2-(phenoxymethyl)benzofuran-5-yl)methoxy)phenyl)acetic acid]"
3,< 1000,"COCc1cc2cc(COc3cc(C#N)ccc3CC(=O)O)cc(-c3cccc(CN)c3)c2o1 [Compound 458b, 2-(2-((7-(3-(aminomethyl)phenyl)-2-(methoxymethyl)benzofuran-5-yl)methoxy)-4-cyanophenyl)acetic acid]"
4,< 1000,"Cc1oc2c(-c3cccc(CN)c3)cc(COc3ccccc3CC(=O)O)cc2c1-c1ccoc1 [Compound 459h, 2-(2-((7-(3-(aminomethyl)phenyl)-3-(furan-3-yl)-2-methylbenzofuran-5-yl)methoxy)phenyl)acetic acid]"
5,< 1000,"Cc1cc2c(-c3ccnc(CN)c3)cc(COc3ccccc3CC(=O)O)cc2o1 [Compound 461c, 2-(2-((4-(2-(aminomethyl)pyridin-4-yl)-2-methylbenzofuran-6-yl)methoxy)phenyl)acetic acid]"
6,< 1000,"COCc1cc2cc(COc3ccc(F)cc3CC(=O)O)cc(-c3cccc(CN)c3)c2o1 [Compound 462c, 2-(2-((7-(3-(aminomethyl)phenyl)-2-(methoxymethyl)benzofuran-5-yl)methoxy)-5-fluorophenyl)acetic acid]"
7,< 1000,"COCc1cc2cc(COc3ccc(F)cc3CC(=O)O)cc(-c3cccc(CN)c3F)c2o1 [Compound 463b, 2-(2-((7-(3-(aminomethyl)-2-fluorophenyl)-2-(methoxymethyl)benzofuran-5-yl)methoxy)-5-fluorophenyl)acetic acid]"
8,< 1000,"COc1ccc(CC(=O)O)c(OCc2cc(-c3ccnc(CN)c3F)c3occc3c2)c1 [Compound 464d, 2-(2-((7-(2-(aminomethyl)-3-fluoropyridin-4-yl)benzofuran-5-yl)methoxy)-4-methoxyphenyl)acetic acid]"
9,< 1000,"COc1ccc(CC(=O)O)c(OCc2cc(-c3cccc(CN)c3F)c3occc3c2)c1 [Compound 465b, 2-(2-((7-(3-(aminomethyl)-2-fluorophenyl)benzofuran-5-yl)methoxy)-4-methoxyphenyl)acetic acid]"
10,< 1000,"COCc1cc2cc(COc3cc(OC)ccc3CC(=O)O)cc(-c3cccc(CN)c3)c2o1 [Compound 466c, 2-(2-((7-(3-(aminomethyl)phenyl)-2-(methoxymethyl)benzofuran-5-yl)methoxy)-4-methoxyphenyl)acetic acid]"
11,< 1000,"COCc1cc2cc(COc3cc(OC)ccc3CC(=O)O)cc(-c3cccc(CN)c3F)c2o1 [Compound 467b, 2-(2-((7-(3-(aminomethyl)-2-fluorophenyl)-2-(methoxymethyl)benzofuran-5-yl)methoxy)-4-methoxyphenyl)acetic acid]"
12,< 1000,"NCc1cccc(-c2cc(COc3c(CC(=O)O)cccc3-c3ccoc3)cc3ccoc23)c1 [Compound 468h, 2-(2-((7-(3-(aminomethyl)phenyl)benzofuran-5-yl)methoxy)-3-(furan-3-yl)phenyl)acetic acid]"
13,< 1000,"CCc1ccc(CC(=O)O)c(OCc2cc(-c3cccc(CN)c3)c3oc(F)cc3c2)c1 [Compound 469g, 2-(2-((7-(3-(aminomethyl)phenyl)-2-fluorobenzofuran-5-yl)methoxy)-4-ethylphenyl)acetic acid]"
14,< 1000,"CCc1ccc(CC(=O)O)c(OCc2cc(-c3cccc(CN)c3F)c3oc(F)cc3c2)c1 [Compound 470b, 2-(2-((7-(3-(aminomethyl)-2-fluorophenyl)-2-fluorobenzofuran-5-yl)methoxy)-4-ethylphenyl)acetic acid]"
15,< 1000,"COCc1cc2cc(COc3cc(OC)ccc3CC(=O)O)cc(-c3ccnc(CN)c3F)c2o1 [Compound 471d, 2-(2-((7-(2-(aminomethyl)-3-fluoropyridin-4-yl)-2-(methoxymethyl)benzofuran-5-yl)methoxy)-4-methoxyphenyl)acetic acid]"
16,< 1000,"COCc1cc2cc(COc3cc(OC)ccc3CC(=O)O)cc(-c3ccnc(CN)c3)c2o1 [Compound 472b, 2-(2-((7-(2-(aminomethyl)pyridin-4-yl)-2-(methoxymethyl)benzofuran-5-yl)methoxy)-4-methoxyphenyl)acetic acid]"
17,< 1000,"NCc1cccc(-c2c(F)c(COc3ccccc3CC(=O)O)cc3ccoc23)c1 [Compound 473e, 2-(2-((7-(3-(aminomethyl)phenyl)-6-fluorobenzofuran-5-yl)methoxy)phenyl)acetic acid]"
